From US20100267774A1, “P38 MAP KINASE INHIBITORS” (CHROMA THERAPEUTICS LTD., priority 2007, published 2010)

Experiments:
p38 MAP Kinase a = target: T1, p38 MAP Kinase a (Homo sapiens, UniProt Q16539); assay: p38 MAP Kinase activity, radiometric filter-binding assay (Upstate); assay type: biochemical; conditions: IC50 range; read-out: Inhibitor activity versus p38 MAPKa
T1 construct: purchased Upstate (Dundee UK)
Protocol: The ability of compounds to inhibit p38 MAP a Kinase activity was measured in an assay performed by Upstate (Dundee UK). In a final reaction volume of 25 μL, p38 MAP Kinase a (5-10 mU) is incubated with 25 mM Tris pH 7.5, 0.002 mMEGTA, 0.33 mg/mL myelin basic protein, 10 mM MgAcetate and [g-33P-ATP] (specific activity approx. 500 cpm/pmol, concentration as required). The reaction is initiated by the addition of the MgATP mix. After incubation for 40 minutes at room temperature, the reaction is stopped by the addition of 5 μL of a 3% phosphoric acid solution. 10 μL of the reaction is then spotted onto a P30 filtermat and washed three times for 5 minutes in 75 mM phosphoric acid and once in methanol prior to drying and scintillation counting.
Duplicate data points are generated from a 1/3 log dilution series of a stock solution in DMSO. Nine dilutions steps are made from a top concentration of 10 μM, and a ‘no compound’ blank is included. The standard radiometric filter-binding assay is performed at an ATP concentration at, or close to, the Km. Data from scintillation counts are collected and subjected to free-fit analysis by Prism software. From the curve generated, the concentration giving 50% inhibition is determined and reported.

THP-1 TNFα release = assay: LPS-stimulation of THP-1 cells, TNF-α release by ELISA; assay type: cell-based; conditions: Homo sapiens, THP-1, 6 h; read-out: Inhibitor activity versus THP-1 TNFα release
Protocol: THP-1 cells were plated in 100 μl at a density of 4×10^4 cells/well in V-bottomed 96 well tissue culture treated plates and incubated at 37° C. in 5% CO2 for 16 hrs. 2 hrs after the addition of the inhibitor in 100 μl of tissue culture media, the cells were stimulated with LPS (E coli strain 005:B5, Sigma) at a final concentration of 1 μg/ml and incubated at 37° C. in 5% CO2 for 6 hrs. TNF-α levels were measured from cell-free supernatants by sandwich ELISA (R&D Systems #QTA00B).

T1 sequence (Q16539 whole entry): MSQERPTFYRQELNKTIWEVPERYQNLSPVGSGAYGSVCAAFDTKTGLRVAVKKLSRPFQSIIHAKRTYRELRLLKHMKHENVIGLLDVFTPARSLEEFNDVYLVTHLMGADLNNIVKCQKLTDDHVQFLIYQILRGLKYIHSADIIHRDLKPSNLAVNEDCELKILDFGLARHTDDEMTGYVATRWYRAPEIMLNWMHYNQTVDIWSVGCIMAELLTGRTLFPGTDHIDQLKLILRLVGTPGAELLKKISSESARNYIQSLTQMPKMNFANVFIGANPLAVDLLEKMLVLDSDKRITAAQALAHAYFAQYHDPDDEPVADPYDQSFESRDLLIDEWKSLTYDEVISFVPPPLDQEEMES

Row | IC50 (p38 MAP Kinase a) | IC50 (THP-1 TNFα release) | SMILES
1 | < 100 nM | < 100 nM | C[C@@H](O)[C@H](NCCc1ccc(-n2c(N)c(C(=O)c3ccc(F)cc3F)ccc2=O)cc1)C(=O)OC1CCCC1 [Example 17, Cyclopentyl N-[2-(4-{6-amino-5-[(2,4-difluorophenyl)carbonyl]-2-oxopyridin-1(2H)-yl}phenyl)ethyl]-L-threoninate]
2 | 100 to 1000 nM | < 100 nM | CC(C)C[C@H](NCCc1cc(F)c(-n2c(N)c(C(=O)c3ccc(F)cc3)ccc2=O)c(F)c1)C(=O)OC(C)(C)C [Example 25, tert-butyl N-(2-{4-[6-amino-5-(4-fluorobenzoyl)-2-oxopyridin-1(2H)-yl]-3,5-difluorophenyl}ethyl)-L-leucinate]
3 | < 100 nM | < 100 nM | CC(C)C[C@H](NCCc1cc(F)c(-n2c(N)c(C(=O)c3ccc(F)cc3)ccc2=O)c(F)c1)C(=O)OC1CCCC1 [Example 24, Cyclopentyl N-(2-{4-[6-amino-5-(4-fluorobenzoyl)-2-oxopyridin-1(2H)-yl]-3,5-difluorophenyl}ethyl)-L-leucinate]
4 | > 1000 nM | < 100 nM | CC(C)C[C@H](NCCc1ccc(-n2c(N)c(C(=O)c3ccc(F)cc3F)ccc2=O)cc1)C(=O)O[C@@H]1CC(C)CC[C@H]1C(C)C (stereo in doubt) [Example 13, (1R,2S,5S)-2-Isopropyl-5-methylcyclohexyl N-(2-{4-[6-amino-5-(2,4-difluorobenzoyl)-2-oxopyridin-1(2H)-yl]phenyl}ethyl)-L-leucinate]
5 | 100 to 1000 nM | < 100 nM | CC(C)C[C@@H](NCCc1cc(F)c(-n2c(N)c(C(=O)c3ccc(F)cc3)ccc2=O)c(F)c1)C(=O)OC1CCCC1 [Example 29, Cyclopentyl N-(2-{4-[6-amino-5-(4-fluorobenzoyl)-2-oxopyridin-1(2H)-yl]-3,5-difluorophenyl}ethyl)-D-leucinate]
6 | < 100 nM | < 100 nM | CC(C)[C@H](NCCc1cc(F)c(-n2c(N)c(C(=O)c3ccc(F)cc3F)ccc2=O)c(F)c1)C(=O)OC1CCCC1 [Example 43, Cyclopentyl N-[2-(4-{6-amino-5-[(2,4-difluorophenyl)carbonyl]-2-oxopyridin-1(2H)-yl}-3,5 difluorophenyl)ethyl]-L-valinate]
7 | < 100 nM | < 100 nM | C[C@@H](O)[C@H](NCCc1cc(F)c(-n2c(N)c(C(=O)c3ccc(F)cc3F)ccc2=O)c(F)c1)C(=O)OC1CCCC1 [Example 45, Cyclopentyl N-[2-(4-{6-amino-5-[(2,4-difluorophenyl)carbonyl]-2-oxopyridin-1(2H)-yl}-3,5-difluorophenyl)ethyl]-L-threoninate]
8 | < 100 nM | < 100 nM | Nc1c(C(=O)c2ccc(F)cc2F)ccc(=O)n1-c1c(F)cc(CCN[C@H](C(=O)OC2CCCC2)c2ccccc2)cc1F [Example 34, Cyclopentyl (2S)-[(2-{4-[6-amino-5-(2,4-difluorobenzoyl)-2-oxopyridin-1(2H)-yl]-3,5-difluorophenyl}ethyl)amino](phenyl)acetate]
9 | – | < 100 nM | CC(C)(C)OC(=O)[C@@H](NCCc1cc(F)c(-n2c(N)c(C(=O)c3ccc(F)cc3F)ccc2=O)c(F)c1)c1ccc(F)cc1 [Example 48, tert-butyl (2S)-{[2-(4-{6-amino-5-[(2,4-difluorophenyl)carbonyl]-2-oxopyridin-1(2H)-yl}-3,5-difluorophenyl)ethyl]amino}(4-fluorophenyl)ethanoate]
10 | 100 to 1000 nM | > 1000 nM | CC(C)(C)OC(=O)[C@@H](NCCc1ccc(-n2c(N)c(C(=O)c3ccc(F)cc3F)ccc2=O)cc1)C(C)(C)C [Example 8, tert-butyl N-[2-(4-{6-amino-5-[(2,4-difluorophenyl)carbonyl]-2-oxopyridin-1(2H)-yl}phenyl)ethyl]-3-methyl-L-valinate]
11 | < 100 nM | < 100 nM | CC(C)(C)OC[C@H](NCCc1cc(F)c(-n2c(N)c(C(=O)c3ccc(F)cc3F)ccc2=O)c(F)c1)C(=O)OC(C)(C)C [Example 41, tert-butyl N-(2-{4-[6-amino-5-(2,4-difluorobenzoyl)-2-oxopyridin-1(2H)-yl]-3,5-difluorophenyl}ethyl)-O-tert-butyl-L-serinate]
12 | 100 to 1000 nM | < 100 nM | Nc1c(C(=O)c2ccc(F)cc2F)ccc(=O)n1-c1ccc(CCN[C@@H](Cc2ccccc2)C(=O)OC2CCCC2)cc1 [Example 22, Cyclopentyl N-[2-(4-{6-amino-5-[(2,4-difluorophenyl)carbonyl]-2-oxopyridin-1(2H)-yl}phenyl)ethyl]-L-phenylalaninate]
13 | < 100 nM | < 100 nM | CC(C)(C)OC[C@H](NCCc1cc(F)c(-n2c(N)c(C(=O)c3ccc(F)cc3F)ccc2=O)c(F)c1)C(=O)OC1CCCC1 [Example 40, Cyclopentyl N-(2-{4-[6-amino-5-(2,4-difluorobenzoyl)-2-oxopyridin-1(2H)-yl]-3,5-difluorophenyl}ethyl)-O-tert-butyl-L-serinate]
14 | 100 to 1000 nM | < 100 nM | CC(C)(C)OC[C@H](NCCc1cc(F)c(-n2c(N)c(C(=O)c3ccc(F)cc3)ccc2=O)c(F)c1)C(=O)OC1CCCC1 [Example 31, Cyclopentyl N-(2-{4-[6-amino-5-(4-fluorobenzoyl)-2-oxopyridin-1(2H)-yl]-3,5-difluorophenyl}ethyl)-O-tert-butyl-L-serinate]
15 | – | < 100 nM | CC(C)(C)OC(=O)[C@@H](NCCc1cc(F)c(-n2c(N)c(C(=O)c3ccc(F)cc3F)ccc2=O)c(F)c1)c1ccccc1 [Example 35, tert-butyl (2S)-[(2-{4-[6-amino-5-(2,4-difluorobenzoyl)-2-oxopyridin-1(2H)-yl]-3,5-difluorophenyl}ethyl)amino](phenyl)acetate]
16 | < 100 nM | – | CC(C)[C@H](NCCc1ccc(-n2c(N)c(C(=O)c3ccc(F)cc3F)ccc2=O)cc1)C(=O)O [Example 53, N-[2-(4-{6-amino-5-[(2,4-difluorophenyl)carbonyl]-2-oxopyridin-1(2H)-yl}phenyl)ethyl]-L-valine]
17 | – | < 100 nM | Nc1c(C(=O)c2ccc(F)cc2F)ccc(=O)n1-c1c(F)cc(CCN[C@H](C(=O)OC2CCCC2)c2ccc(F)cc2)cc1F [Example 47, Cyclopentyl (2S)-{[2-(4-{6-amino-5-[(2,4-difluorophenyl)carbonyl]-2-oxopyridin-1(2H)-yl}-3,5-difluorophenyl)ethyl]amino}(4-fluorophenyl)ethanoate]
18 | < 100 nM | – | CC(C)C[C@@H](NCCc1cc(F)c(-n2c(N)c(C(=O)c3ccc(F)cc3)ccc2=O)c(F)c1)C(=O)O [Example 64, N-(2-{4-[6-amino-5-(4-fluorobenzoyl)-2-oxopyridin-1(2H)-yl]-3,5-difluorophenyl}ethyl)-D-leucine]
19 | < 100 nM | – | C[C@H](NCCc1ccc(-n2c(N)c(C(=O)c3ccc(F)cc3F)ccc2=O)cc1)C(=O)OC(C)(C)C [Example 21, tert-butyl N-[2-(4-{6-amino-5-[(2,4-difluorophenyl)carbonyl]-2-oxopyridin-1(2H)-yl}phenyl)ethyl]-L-alaninate]
20 | 100 to 1000 nM | – | CC(C)C[C@@H](NCCc1ccc(-n2c(N)c(C(=O)c3ccc(F)cc3F)ccc2=O)cc1)C(=O)O [Example 55, N-[2-(4-{6-amino-5-[(2,4-difluorophenyl)carbonyl]-2-oxopyridin-1(2H)-yl}phenyl)ethyl]-D-leucine]
21 | < 100 nM | – | CC(C)C[C@@H](NCCc1cc(F)c(-n2c(N)c(C(=O)c3ccc(F)cc3F)ccc2=O)c(F)c1)C(=O)O [Example 68, N-(2-{4-[6-amino-5-(2,4-difluorobenzoyl)-2-oxopyridin-1(2H)-yl]-3,5-difluorophenyl}ethyl)-D-leucine]
22 | 100 to 1000 nM | – | CC(C)C[C@H](NCCc1ccc(-n2c(N)c(C(=O)c3ccc(F)cc3F)ccc2=O)s1)C(=O)O [Example 71, N-(2-{5-[6-amino-5-(2,4-difluorobenzoyl)-2-oxopyridin-1(2H)-yl]-2-thienyl}ethyl)-L-leucine]

Row | SMILES | IC50 (p38 MAP Kinase a) | IC50 (THP-1 TNFα release)
23 | Nc1c(C(=O)c2ccc(F)cc2)ccc(=O)n1-c1c(F)cc(CCN[C@H](C(=O)OC2CCCC2)C2CCCCC2)cc1F [Example 28, Cyclopentyl (2S)-[(2-{4-[6-amino-5-(4-fluorobenzoyl)-2-oxopyridin-1(2H)-yl]-3,5-difluorophenyl}ethyl)amino](cyclohexyl)acetate] | 100 to 1000 nM | 100 to 1000 nM
24 | Nc1c(C(=O)c2ccc(F)cc2F)ccc(=O)n1-c1c(F)cc(CCN[C@H](C(=O)OC2CCCC2)C2CCCCC2)cc1F [Example 36, Cyclopentyl (2S)-[(2-{4-[6-amino-5-(2,4-difluorobenzoyl)-2-oxopyridin-1(2H)-yl]-3,5-difluorophenyl}ethyl)amino](cyclohexyl)acetate] | 100 to 1000 nM | < 100 nM
25 | Nc1c(C(=O)c2ccc(F)cc2F)ccc(=O)n1-c1ccc(CCN[C@H](C(=O)OC2CCCC2)C2CCCCC2)cc1 [Example 3, Cyclopentyl (2S)-{[2-(4-{6-amino-5-[(2,4-difluorophenyl)carbonyl]-2-oxopyridin-1(2H)-yl}phenyl)ethyl]amino}(cyclohexyl)ethanoate] | 100 to 1000 nM | –
